Here are results for eight substances from patent US20230263822A1, “MODULATION OF FACTOR 11 EXPRESSION” (Ionis Pharmaceuticals, Inc., priority 2008, published 2023).

Strand notation (5' to 3'): a small letter for the sugar, then the base; units joined by * are phosphorothioate-linked, units joined directly phosphodiester-linked; [ ] holds rarer units or linkages, { } end groups; capitals alone tell only the bases. e = 2'-O-(2-methoxyethyl) (MOE); [5mC] = 5-methylcytosine; d = 2'-deoxy (DNA)

The term IC50 denotes the concentration that inhibits the measured activity by half. The term % inhibition denotes the percentage by which the read-out fell short of the control.

Holding throughout (assay type): cell-based
Series [1] relates to human Factor 11 mRNA. The series can be described thus: Dose-dependent inhibition of human Factor 11 in HepG2 cells, electroporation 0.7-20 uM (Example 4). The conditions noted are these: for percent inhibition of Factor 11 at 0.7 μM / percent inhibition of Factor 11 at 2.2 μM / percent inhibition of Factor 11 at 6.7 μM / percent inhibition of Factor 11 at 20 μM: relative to untreated control cells. Here is the method:
(§1) The gapmers were also transfected via electroporation and their dose dependent inhibition of human Factor 11 mRNA was measured. Cells were plated at a density of 20,000 cells per well and transfected via electroporation with 0.7 μM, 2.2 μM, 6.7 μM, and 20 μM concentrations of antisense oligonucleotide, as specified in Table 10. After a treatment period of approximately 16 hours, RNA was isolated from the cells and Factor 11 mRNA levels were measured by quantitative real-time PCR. Human Factor 11 primer probe set RTS 2966 was used to measure mRNA levels. Factor 11 mRNA levels were adjusted according to total RNA content, as measured by RIBOGREEN. Results are presented as percent inhibition of Factor 11, relative to untreated control cells.

Series [2] relates to human Factor 11 mRNA. The series can be described thus: Antisense inhibition of human Factor 11 in HepG2 cells by microwalk gapmers, lipofectin, 75 nM (Example 3). In a few lines: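 HepG2 cells (10,000/well) were transfected via lipofectin with 75 nM 20-mer MOE gapmers (phosphorothioate, 5-methyl-C) for about 24 h. Factor 11 mRNA was measured by qRT-PCR, normalized to RIBOGREEN total RNA, and given as percent inhibition versus untreated cells.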

Series [3] relates to human Factor 11 mRNA. The experiment in a line: Dose-dependent inhibition of human Factor 11 in HepG2 cells, lipofectin 9.375-75 nM (Example 4). Conditions: for percent inhibition of Factor 11 at 9.375 nM / percent inhibition of Factor 11 at 18.75 nM / percent inhibition of Factor 11 at 37.5 nM / percent inhibition of Factor 11 at 75 nM: relative to untreated control cells. Here is the method:
as §1, with “Cells” for “The gapmers were also transfected via electroporation and their dose dependent inhibition of human Factor 11 mRNA was measured. Cells”, “10,000” for “20,000”, “using lipofectin reagent” for “via electroporation”, “9.375 nM, 18.75 nM, 37.5 nM” for “0.7 μM, 2.2 μM, 6.7 μM,”, “75 nM” for “20 μM”, “9.” for “10.”

Where [4] appears, read: HepG2, lipofectin, ~24 h, gapmers targeted to nucleobases 656 to 704 of SEQ ID NO: 1.
The mark [5] stands for this setting: HepG2 cells, lipofectin, gapmers targeted to nucleobases 1275 to 1318 of SEQ ID NO: 1.

As for “416827 (antisense eT*eA*eT*eG*e[5mC]*d[5mC]*d[5mC]*dT*dT*d[5mC]*dA*dT*dG*dT*d[5mC]*eT*eA*eG*eG*eT) [compound 416827]”, in series [1], it took 1100 nM to reach half-maximal inhibition (IC50), the “percent inhibition of Factor 11 at 0.7 μM” value amounted to 37%, the “percent inhibition of Factor 11 at 2.2 μM” value came to 68% and the “percent inhibition of Factor 11 at 6.7 μM” value amounted to 87%. Further, in series [1], the “percent inhibition of Factor 11 at 20 μM” value turned out to be 92%. Also, the “% inhibition” value in series [2] (setting [4]) is recorded as 93%. In series [3], the IC50 worked out at 23 nM, the “percent inhibition of Factor 11 at 9.375 nM” value was 31%, the “percent inhibition of Factor 11 at 18.75 nM” value is listed as 42% and the “percent inhibition of Factor 11 at 37.5 nM” value came out at 62%. For the same substance, in series [3], the “percent inhibition of Factor 11 at 75 nM” value came out at 77%.

Turning to “416842 (antisense eT*eG*eA*eG*eA*dT*dT*d[5mC]*dT*dT*dT*dG*dG*dG*d[5mC]*e[5mC]*eA*eT*eT*e[5mC]) [compound 416842]”, in series [1], the IC50 was determined as 5000 nM, the “percent inhibition of Factor 11 at 0.7 μM” value is reported as 0%, the “percent inhibition of Factor 11 at 2.2 μM” value is on record as 10% and the “percent inhibition of Factor 11 at 6.7 μM” value is 66%. In series [1], the “percent inhibition of Factor 11 at 20 μM” value amounted to 92%. For the same substance, the “% inhibition” value in series [2] (HepG2 cells, lipofectin, gapmers targeted to nucleobases 1062 to 1091 of SEQ ID NO: 1) was 94%. In addition, in series [3], the IC50 came out at 31 nM, the “percent inhibition of Factor 11 at 9.375 nM” value worked out at 18%, the “percent inhibition of Factor 11 at 18.75 nM” value amounted to 33% and the “percent inhibition of Factor 11 at 37.5 nM” value amounted to 62%. Also, the “percent inhibition of Factor 11 at 75 nM” value in series [3] is listed as 71%.

“416878 (antisense eG*eG*eT*d[5mC]*d[5mC]*dA*d[5mC]*dA*dT*dA*dA*dA*dT*dG*dT*d[5mC]*dT*eT*eT*eG) [compound 416878]”: in series [1], half-maximal inhibition (IC50) was put at 4300 nM, the “percent inhibition of Factor 11 at 0.7 μM” value turned out to be 1%, the “percent inhibition of Factor 11 at 2.2 μM” value worked out at 26% and the “percent inhibition of Factor 11 at 6.7 μM” value was 75%. The “percent inhibition of Factor 11 at 20 μM” value in series [1] turned out to be 85%. The “% inhibition” value in series [2] (setting [4]) amounted to 95%. Further, in series [3], the IC50 was found to be 27 nM, the “percent inhibition of Factor 11 at 9.375 nM” value was 22%, the “percent inhibition of Factor 11 at 18.75 nM” value came to 34% and the “percent inhibition of Factor 11 at 37.5 nM” value came to 60%. In addition, the “percent inhibition of Factor 11 at 75 nM” value in series [3] worked out at 82%.

Take “416895 (antisense eT*eA*eT*dG*d[5mC]*d[5mC]*d[5mC]*dT*dT*d[5mC]*dA*dT*dG*dT*d[5mC]*dT*dA*eG*eG*eT) [compound 416895]”: in series [1], the midpoint of inhibition, the IC50, lay at 3000 nM; the “percent inhibition of Factor 11 at 0.7 μM” value is recorded as 0%; the “percent inhibition of Factor 11 at 2.2 μM” value is 62%; the “percent inhibition of Factor 11 at 6.7 μM” value is reported as 70%. Moreover, in series [1], the “percent inhibition of Factor 11 at 20 μM” value is given as 91%. Further, the “% inhibition” value in series [2] (setting [4]) was 95%. In series [3], the IC50 worked out at 15 nM, the “percent inhibition of Factor 11 at 9.375 nM” value is listed as 39%, the “percent inhibition of Factor 11 at 18.75 nM” value is given as 57% and the “percent inhibition of Factor 11 at 37.5 nM” value is recorded as 66%. Further, in series [3], the “percent inhibition of Factor 11 at 75 nM” value was 71%.

On to “417018 (antisense eG*eG*d[5mC]*dA*dG*d[5mC]*dG*dG*dA*d[5mC]*dG*dG*d[5mC]*dA*dT*eT*eG*eG*eT*eG) [compound 417018]”, for which, in series [2] (setting [5]), the “% inhibition” value stood at 82%.

For “417019 (antisense eT*eG*dG*d[5mC]*dA*dG*d[5mC]*dG*dG*dA*d[5mC]*dG*dG*d[5mC]*dA*eT*eT*eG*eG*eT) [compound 417019]”, the “% inhibition” value in series [2] (setting [5]) is listed as 84%.

For the substance “417020 (antisense e[5mC]*eT*dG*dG*d[5mC]*dA*dG*d[5mC]*dG*dG*dA*d[5mC]*dG*dG*d[5mC]*eA*eT*eT*eG*eG) [compound 417020]”, the “% inhibition” value in series [2] (setting [5]) is on record as 84%.

Turning to “417021 (antisense eA*e[5mC]*dT*dG*dG*d[5mC]*dA*dG*d[5mC]*dG*dG*dA*d[5mC]*dG*dG*e[5mC]*eA*eT*eT*eG) [compound 417021]”, in series [2] (setting [5]), the “% inhibition” value worked out at 74%.
